Measurements: PubChem BioAssay AID463204 (Broad Institute, 2010)
Activity calls are given as the source filed them.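 Rule for the calls: active = AC50 no more than ten times the top concentration tested, that is within one log above it; inconclusive = flat curve fit with activity between 30% and 70%, or invalid poor fit; inactive = AC50 beyond ten times the top tested dose.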

System: S. cerevisiae Mot1-301 ts growth rescue, BacTiter-Glo ATP luminescence
Test: restored Mot1-301 yeast growth at 38.5C – whole organism, S. cerevisiae, Mot1-301 ts mutant, luminescence, dose retest, SUMOylation pathway inhibitor project, confirmation (AID 463204);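 note: growth at restrictive 38.5 degrees C of Mot1-301 OY566 strain; actives raise luminescence by restoring growth of the ts mutant at high temperature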

Row | Compound | AC50
1 | COCCN(C(=O)c1csnn1)C(C(=O)NC1CCCCC1)c1ccccc1 (stereo not given) | > 42 µM (inactive)
2 | COc1ccc(C)cc1NC(=O)C12CCC(C)(C(=O)O1)C2(C)C (stereo not given) | > 42 µM (inactive)
3 | COc1cccc2[nH]c(=O)c(-c3ccccc3)cc12 | > 42 µM (inactive)
4 | O=c1c2ccccc2ncn1Cc1ccc2c(c1)OCO2 | > 42 µM (inactive)
5 | CCCCC(=O)Nc1nnc(/C=C/c2ccc(OC)cc2)s1 | > 42 µM (inactive)
6 | CCCCn1c2nc3ccccc3nc2c2c(=O)n(CCC)cnc21 | > 42 µM (inactive)
7 | C/C(=N\NC(=S)Nc1ccccc1)C1Cc2ccccc2C(=O)O1 (stereo not given) | > 42 µM (inactive)
8 | O=C(CSc1nnc(-c2cccs2)n1-c1ccccc1)c1ccc2c(c1)OCCO2 | > 42 µM (inactive)
9 | Cc1ccc2c(c1)N(CC(=O)NCCCN1CCN(C)CC1)C(=O)CO2 | > 42 µM (inactive)
10 | COCCCNC(=O)c1cc(C(=O)c2c(-c3c(Cl)cccc3Cl)noc2C)c[nH]1 | > 42 µM (inactive)
11 | O=C(CSc1nnc(-c2ccccc2Cl)o1)Oc1ccc(Br)cc1 | > 42 µM (inactive)
12 | COc1ccccc1NC(=S)N(Cc1ccco1)Cc1cc2cccc(C)c2[nH]c1=O | > 42 µM (inactive)
13 | Cn1cc(C(=O)Cc2ccccc2)c2ccccc21 | > 42 µM (inactive)
14 | COc1cccc(-c2ocnc2C(=O)Nc2ccc3c(c2)CCC3)c1 | > 42 µM (inactive)
15 | O=C(c1cnn2c(C(F)(F)F)cc(-c3ccco3)nc12)N1CCCc2ccccc21 | > 42 µM (inactive)
16 | O=C(Nc1ccc(F)cc1)c1ccc(CSc2ccccc2)o1 | > 42 µM (inactive)
17 | CCOP(=O)(Cc1cc(C(=O)CC)c(C)o1)OCC | > 42 µM (inactive)
18 | Oc1ccc(Br)cc1/C=N/n1c(COc2ccccc2)n[nH]c1=S | 14.2 µM
19 | C[N+](C)(C)CC(=O)Nc1ccc(Cl)cc1C(=O)c1ccccc1 | > 42 µM (inactive)
20 | N#C/C(=C\c1cc([N+](=O)[O-])c(N2CCOCC2)cc1N1CCOCC1)c1nc2ccccc2[nH]1 | > 42 µM (inactive)
21 | COc1ccc(NC(=O)c2cc(S(=O)(=O)Nc3ccc(OC)cc3)cs2)cc1 | > 42 µM (inactive)
22 | C=CCn1c(=N)c(C(=O)NCCCOC)cc2c(=O)n3ccccc3nc21 | > 42 µM (inactive)
23 | COc1ccc(Cn2nnnc2CN2CCN(c3ccc(OC)cc3)CC2)cc1 | > 42 µM (inactive)
24 | N#C/C(=C\c1c(N(Cc2ccccc2)Cc2ccccc2)nc2ccccn2c1=O)C(N)=O | > 42 µM (inactive)

Row | Compound | AC50
25 | CCCCCCCCc1nc(SCC(C)=O)n[nH]1 | > 42 µM (inactive)
26 | COc1ccccc1CNc1nc(SC)ncc1CO | > 42 µM (inactive)
27 | Nc1cc(=O)[nH]c(=O)n1CCc1ccccc1 | > 42 µM (inactive)
28 | Cc1ccc(C(=O)NCCCNC(=O)c2ccc(C)nc2)cc1 | > 42 µM (inactive)
29 | Cc1cccc(N/N=C/c2c(O)[nH]c(=S)[nH]c2=O)c1 | > 42 µM (inactive)
30 | CC1CCCC(C)N1CCCNC(=O)c1csc2c1CCCCC2 (stereo not given) | > 42 µM (inactive)
31 | Cc1sc(-n2c(C)cc(C=C3C(=O)NC(=O)NC3=O)c2C)c(C#N)c1C | > 42 µM (inactive)
32 | N/C(Cn1cncn1)=N\NC(=O)c1ccc(Cl)cc1Cl | > 42 µM (inactive)
33 | O=C(CN1CCN(C(=O)c2ccccc2)CC1)Nc1ncc(Br)cc1Br | > 42 µM (inactive)
34 | Oc1c(Br)cc(Br)cc1/C=N/n1c(-c2ccccc2)n[nH]c1=S | 26.2 µM
35 | COc1ccc(NC(=O)CSc2nnc(-c3ccccn3)n2-c2ccccc2)cc1OC | > 42 µM (inactive)
36 | CCOC(=O)C1=C[C@]2(CC)CCCN3CCc4c(n1c1ccccc41)[C@@H]32 | > 42 µM (inactive)
37 | Nc1cc[n+](CC(=O)Nc2ccccc2)cc1 | > 42 µM (inactive)
38 | CCc1noc(C)c1C(=O)Nc1nc(-c2ccc(F)cc2)c(C)s1 | > 42 µM (inactive)
39 | Cc1cccc(N(Cc2ccccc2)C(=O)CSC(C)C(=O)Nc2cc(C)on2)c1 (stereo not given) | > 42 µM (inactive)
40 | CCCCC(=O)NCCc1ccc(S(N)(=O)=O)cc1 | > 42 µM (inactive)
41 | Cc1ccc(NC(=O)N[C@H](C(=O)O)C(C)C)c(C)c1 | > 42 µM (inactive)
42 | CC(=O)Nc1sc2c(c1C(c1ccc(F)cc1)N1CCOCC1)CCCC2 (stereo not given) | 11.8 µM
43 | CCOC(=O)c1c(/N=C/C2C(=O)CCCC2=O)sc2c1CCCC2 | > 42 µM (inactive)
44 | COc1ccc(C(=O)N(CCc2ccccc2)Cc2ccccc2)c(OC)n1 | > 42 µM (inactive)
45 | O=C(O)c1ccc(COc2c(F)c(F)cc(F)c2F)cc1 | > 42 µM (inactive)
46 | CCOC(=O)N1CCN(C(=O)c2ccc3ccccc3c2)CC1 | > 42 µM (inactive)
47 | CCCN1C(=O)c2[nH]nc(-c3cc(Cl)c(C)cc3O)c2C1c1ccc(O)c(OC)c1 (stereo not given) | > 42 µM (inactive)
48 | COc1ccccc1CC(=O)N1CCN(S(=O)(=O)c2ccccc2)CC1 | > 42 µM (inactive)

Row | Compound | AC50
49 | Cc1c(NC(=O)CN2C(=O)NC(C)(c3ccc(OC(F)F)cc3)C2=O)c(=O)n(-c2ccccc2)n1C (stereo not given) | > 42 µM (inactive)
50 | Cn1c(=NC(=O)COc2ccccc2)sc2cc(F)cc(F)c21 | > 42 µM (inactive)
51 | Cc1ccc(N(C(C)C(=O)O)S(=O)(=O)c2c(C)n[nH]c2C)cc1 (stereo not given) | > 42 µM (inactive)
52 | Cc1ccc(-c2nc3c(=O)n(-c4ccccc4)c4c(c(=O)n(C)c(=O)n4C)c3o2)cc1 | > 42 µM (inactive)
53 | CCOc1cc(C(N)=O)cc(Cl)c1OCc1ccccc1 | > 42 µM (inactive)
54 | CC1(C)c2[nH]c3ccccc3c2C[C@H]2C(=O)N(Cc3cccc(F)c3)C(=O)N21 | > 42 µM (inactive)
55 | COc1ccc(-c2csc(NC(=O)CS(=O)(=O)c3ccc(F)cc3)n2)cc1OC | > 42 µM (inactive)
56 | CC(C)(C)c1ccc(C(=O)COC(=O)CN2C(=O)NC3(CCCC3)C2=O)cc1 | > 42 µM (inactive)
57 | CC(=O)NC1CCCN(O)C(=O)/C=C(\C)CCOC(=O)C(NC(C)=O)CCCN(O)C(=O)/C=C(\C)CCOC(=O)C(NC(C)=O)CCCN(O)C(=O)/C=C(\C)CCOC1=O (stereo not given) | > 42 µM (inactive)
58 | CCNCCNC(=O)c1c(O)c2c([nH]c1=O)CCCC2 | > 42 µM (inactive)
59 | CCOC(=O)C1(c2ccccc2)CCN(CCC(=O)Nc2ccccc2OC)CC1 | > 42 µM (inactive)
60 | C/C(O)=C(\N=Nc1cc(C)ccc1O)C(N)=O | > 42 µM (inactive)
61 | CC1=CC2=NC(=O)/C(=C\c3cc(C)n(-c4ccccc4)c3C)C(=N)N2O1 | > 42 µM (inactive)
62 | COC(=O)c1ccncc1C(=O)Nc1ccc(Oc2ncc(C(F)(F)F)cc2Cl)cc1 | > 42 µM (inactive)
63 | COCCn1c(SCC(=O)NCc2cccs2)nnc1-c1ccc(OC)cc1 | > 42 µM (inactive)
64 | COc1ccc(NC(=O)Cn2c(=O)cnc3ccccc32)cc1S(=O)(=O)N1CCCCC1 | > 42 µM (inactive)
65 | CCN(CC)C(=O)Cn1cc(S(=O)(=O)CC(=O)NCCc2ccc(OC)c(OC)c2)c2ccccc21 | > 42 µM (inactive)
66 | CC(NC(=O)C1CCCCC1)C(=O)NC1=NCCS1 (stereo not given) | > 42 µM (inactive)
67 | CCCCNS(=O)(=O)c1ccc2c(c1)oc(=O)n2CC(=O)OCC | > 42 µM (inactive)
68 | COc1ccc(NC(=O)Nc2ccc(OC)cc2)cc1 | > 42 µM (inactive)
69 | CCOc1c(Cl)cc(CNCC(O)c2ccccc2)cc1OC (stereo not given) | > 42 µM (inactive)
70 | COc1cc(COc2ccc3c(C)c(CC(=O)O)c(=O)oc3c2C)cc(OC)c1OC | > 42 µM (inactive)
